Source: article PMC6268492, “Synthesis and Antiangiogenic Activity of Novel Gambogic Acid Derivatives” (Molecules, 2012)

Columns and labels:
[1] = test system: zebrafish embryos; assay: Zebrafish toxicity: heart rates; assay type: in vivo; details: for Heart rates of zebrafish: control 117 beats/min
Experimental: (§1) To investigate the toxicity of these four compounds, the heart rates and the mortality rates of zebrafish embryos were recorded (Table 2 and Table 3). The heart rate of zebrafish in the control group was 117 beats/min.
(§2) Using transgenic fli-1: enhanced GFP zebrafish embryos, we investigated the effects of all compounds on angiogenesis. Zebrafish embryos were generated by natural pairwise mating and raised at 28.5 °C in embryo water (0.2 g/L of Instant Ocean Salt in distilled water). At about 6 h post fertilization (hpf), the embryos were sorted in the 6-well plate (six embryos/well), removing dead and unhealthy embryos. Then the embryos were treated with the indicated concentrations of compounds which were added into embryo water. After incubation for 24 or 48 h, the embryos were anesthetized using 0.05% 2-phenoxyethanol in embryo water, quantified and photographed.

[2] = test system: zebrafish embryos; assay: Zebrafish toxicity: mortality rate; assay type: in vivo, zebrafish (Danio rerio)
Experimental: as §1, §2

[3] = test system: HUVECs; assay: Wound-healing migration assay; assay type: cell-based, Human; details: 1 μM, 24 h, control = 100%
Description: The migration of ECs is an important step of angiogenesis. The continuity of vascular ECs is the most important factor in preserving vessel wall function. Migration of ECs is essential to the recovery of this continuity after vascular ECs injury. […] As illustrated in Figure 3(I), the HUVECs migrated into the wound area actively (between the two white dash lines) under the compound-free condition (control).
Figure 3 Effects on the HUVECs migration. (I) HUVECs suspended in serum-free Dulbecco’s Modified Eagle Medium (DMEM) containing compounds (0.25 or 0.5 or 1 μM) for 24 h were photographed under a phase contrast microscopy (Olympus CKX41, magnification: 50×). Control was treated with serum-free DMEM which was consided as resulting in 100%; (II) Migration rates of compounds on the HUVECs. Data represented the mean standard deviation (SD) from three independent experiments. *** p < 0.005compared with control.
HUVECs were seeded in 6-well plates precoated with 0.1% gelatin, and grown overnight to confluence. The monolayer cells were wounded by scratching with 10 μL pipet tips and washed twice with serum-free DMEM (Dulbecco’s modified eagle medium) to remove the nonadherent cells and then replaced by serum-free DMEM with the indicated concentrations of compounds for 24 h. Images were taken at 0 h and 24 h independently after incubation at 37 °C, 5% CO2 environment. The migrated HUVECs were manually counted. The values were observed from four randomly selected fields.

[4] = test system: HUVECs; assay: Matrigel tube formation assay; assay type: cell-based, Human
Experimental: In the later stages of angiogenesis, tube formation of ECs is also an important process. Thus, a Matrigel tube formation assay was applied to assess the ability of HUVECs to form ECs vascular structures which is believed to be significant in new vessel formation.
Figure 4 Effects on the HUVECs tube formation. (I) HUVECs (1 × 10^4 cells) suspended in DMEM containing each compound (0.5 or 1 or 2 μM) were added to the Matrigel. Control was treated with DMEM alone. After incubation for 6 h at 37 °C, capillary networks were photographed and quantified (Olympus CKX41, magnification: 100×); (II) Rates of the HUVECs tube formation. The number of intact tubes was counted in five randomly chosen regions and expressed as the percentage of the control. The results were expressed as mean ±SD. ** p < 0.01; *** p < 0.005 compared with control.
Matrigel was dissolved at 4 °C overnight. Each well of prechilled 96-well plates was coated with 50 μL of Matrigel, incubated and solidified at 37 °C for 45 min. After removing the unsolidified fluid, HUVECs at the density of 1 × 10^4 were cultured in DMEM containing the indicated concentrations of compounds for 6 h. Controls were treated with the DMEM alone. Images were digitally captured and quantitatively analyzed (Olympus). The numbers and line lengths of the circular tubules formed by the cells were calculated manually. The values were observed from five randomly selected fields.

[5] = test system: A549; assay: MTT assay, cell proliferation; assay type: cell-based; details: Homo sapiens, 24 h, read-out: IC50, inhibition of cell proliferation
How it was run: (§3)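 Absorbance at 570 nm of DMSO-dissolved formazan was expressed as percentage growth relative to untreated cells, and IC50 was taken as the concentration giving 50% inhibition. Seeding was 5 × 10^3 cells per well, with 24 h compound treatment followed by 3 h MTT.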

[6] = test system: HCT116; assay: MTT assay, cell proliferation; assay type: cell-based; details: Homo sapiens, HCT-116, 24 h, read-out: IC50, inhibition of cell proliferation
How it was run: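 Cells are seeded at 5 × 10^3 per well and treated with a concentration series for 24 h. MTT is then added for 3 h, the precipitate is solubilised in DMSO and read at 570 nm. K562 grows in RPMI 1640, the other lines in DMEM, all with 10% FBS.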

[7] = test system: HeLa; assay: MTT assay, cell proliferation; assay type: cell-based; details: Homo sapiens, 24 h, read-out: IC50, inhibition of cell proliferation
How it was run: (§4)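 5 × 10^3 cells/well; compound 24 h, 37 °C, 5% CO2; MTT 3 h; formazan in DMSO; A570. Media: DMEM + 10% FBS (HepG2, HeLa, LO2), RPMI 1640 + 10% FBS (K562). IC50 = 50% growth inhibition vs untreated.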

[8] = test system: HepG2; assay: MTT assay, cell proliferation; assay type: cell-based; details: Homo sapiens, 24 h, read-out: IC50, inhibition of cell proliferation
How it was run: as §4

[9] = test system: K562; assay: MTT assay, cell proliferation; assay type: cell-based; details: Homo sapiens, 24 h, read-out: IC50, inhibition of cell proliferation
How it was run: as §4

[10] = test system: HUVEC; assay: MTT assay, cell proliferation; assay type: cell-based, Human; details: Homo sapiens, 24 h, read-out: IC50, inhibition of cell proliferation
How it was run: as §3

[11] = test system: LO2; assay: MTT assay, cytotoxicity; assay type: cell-based; details: Homo sapiens, L02, 24 h, read-out: IC50, inhibition of cell proliferation
How it was run: as §4

CC(=O)Nc1ccc(NC(=O)/C(C)=C\CC23OC(C)(C)C4CC(C=C5C(=O)c6c(O)c7c(c(CC8OC8(C)C)c6OC542)OC(C)(CCC2OC2(C)C)C=C7)C3=O)cc1 (stereo not shown) [Compound 36, (32,33),(37,38)-Diepoxy-N-(4-acetamidophenyl) gambogamide]
heart rates relative to control group ([1]; 2.5 µM and 10 µM, zebrafish): about half of the control group
Heart rates of zebrafish ([1]; 2.5 μM): 60 ± 5.2 beats/min
Heart rates of zebrafish ([1]; 10 μM): 60 ± 2.86 beats/min
Mortality rates ([2]; 1 μM, zebrafish): 0%
Mortality rates ([2]; 2.5 µM and 10 µM, zebrafish embryos): less than 20%
Mortality rates ([2]; 2.5 μM, zebrafish): 3.3 ± 5.77 %
Mortality rates ([2]; 10 μM, zebrafish): 16.7 ± 5.77 %
migratory rates [3]: 1.7%
improvement in the inhibition of tube formation compared with GA ([4]; 0.5 μM): 2 fold
inhibition at 0.5 µM ([4]; Homo sapiens, HUVEC, 0.5 μM, 6 h, vs control, read-out: inhibitory rates of tube formation): 56.5%
inhibition at 2 µM ([4]; Homo sapiens, HUVEC, 2 μM, read-out: tube formation inhibitory rate): 100%
inhibition of tubular structures ([4]; concentrations exceeding 1 μM): completely inhibit tubular structures
IC50 [5]: 1.29 ± 0.14 µM
IC50 [6]: 0.56 ± 0.01 µM
IC50 [7]: 4.96 ± 0.88 µM
IC50 [8]: 1.85 ± 0.08 µM
IC50 [9]: 0.28 ± 0.03 µM
IC50 [10]: 2.45 ± 0.09 µM
IC50 [11]: 1.62 ± 0.08 µM
